# Peptide text beside a SMILES is read from it. * marks the point of attachment. Cbz = O=C(OCc1ccccc1)*
# Columns and labels:
# [1] = test system: Ax20 peptidase (SEQ ID NO: 2); assay: Inhibition of Pro-Gly cleavage by recombinant Ax20 peptidase, fluorescamine detection of free NH2; assay type: biochemical, Corynebacterium sp. Ax20; conditions: Pro-Gly 1 mM, 1 μg/ml peptidase, 60 min at 37° C.
# Description: Cleavage of the peptide substrate Pro-Gly by addition of the recombinant Ax20 peptidase (SEQ ID NO: 2) released a unique free NH2 group which can be derivatized by fluorescamine (Fluram™, Fluka, Buchs, Switzerland). Test compounds (for example, potential enzyme inhibitors) are dissolved in dimethylsulfoxid (DMSO), for example in individual wells of a microtiter plate. […] Controls are run in parallel and subjected to the same procedure. A positive control contains DMSO without inhibitor, a negative control contains no substrate.
# [2] = test system: peptidase (SEQ ID NO:2) and β-lyase; assay: Inhibition of free SH release from S-benzyl-cys-gly by peptidase plus β-lyase, monobromobimane detection; assay type: biochemical, Corynebacterium sp. Ax20; conditions: peptidase 0.1 μg/ml, β-lyase 5 μg/ml
# Description: For the results shown below (S-benzyl)-cys-gly was used.
# Instead of derivatising the free NH2 group of the conjugate by adding Fluram, the free SH group released from the conjugate by the subsequent action of both enzymes was derivatised by adding monobromobimane (Fluka, Buchs, Switzerland) dissolved in a NaCO3 buffer (100 mM, pH 8.8) to give a final concentration of 0.5 mM to 1 mM. After 5 to 15 min incubation the fluorescence was measured on a Flex-station (Molecular devices, Sunnyvale, Calif., USA) with an excitation wavelength of 385 nm and an emission wavelength of 480 nm.
# [3] = target: T1, AMRE enzyme (Nα-acyl-glutamine-aminoacylase) (Corynebacterium striatum, UniProt Q8GGD4); assay: Inhibition of AMRE-catalysed release of free NH2 groups from N-Lauroyl-glutamine; assay type: biochemical
# T1 construct: made in house
# T1 sequence (Q8GGD4 whole entry): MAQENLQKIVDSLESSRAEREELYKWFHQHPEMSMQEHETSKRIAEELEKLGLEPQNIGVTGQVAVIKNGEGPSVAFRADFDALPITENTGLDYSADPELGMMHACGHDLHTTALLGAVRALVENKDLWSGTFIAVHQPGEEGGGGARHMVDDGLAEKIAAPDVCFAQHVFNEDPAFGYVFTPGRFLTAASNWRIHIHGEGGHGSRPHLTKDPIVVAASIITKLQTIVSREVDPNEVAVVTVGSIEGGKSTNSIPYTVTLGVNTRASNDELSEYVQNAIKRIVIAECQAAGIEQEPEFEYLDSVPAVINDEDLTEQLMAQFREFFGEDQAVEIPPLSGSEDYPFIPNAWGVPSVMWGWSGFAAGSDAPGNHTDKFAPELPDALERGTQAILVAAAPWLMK
# Description: In an additional step to example 7 or 8, the identified peptidase inhibitors were tested for their modulating effect against the AMRE enzyme (Nα-acyl-glutamine-aminoacylase described by Natsch in EP1258531), thereby identifying dual inhibitors of both metallopeptidase enzymes involved in malodour release.
# AMRE is formed as described in example 6 of EP1258531.
# Ax20 peptidase = assay: Substrate specificity of recombinant Ax20 peptidase, cleavage by thin layer chromatography; assay type: biochemical, Corynebacterium sp. Ax20; design: key: (+++) indicating >80% cleavage of a 1 mM solution by 0.1 μg/ml peptidase during an incubation for 1 h; (++) indicates complete cleavage of a 1 mM solution by 1 μg/ml peptidase during an incubation for 1 h; (+) indicates partial cleavage (20-80%) of a 1 mM solution by 1 μg/ml peptidase during an incubation for 1 h; (−) indicating the absence of any cleavage; conditions: 1 mM solution, 0.1 or 1 μg/ml peptidase, incubation 1 h
# Description: The recombinant Ax20 peptidase formed as described in example 3 (affinity column purified tagged enzyme) was incubated with different compounds, in particular potential candidate dipeptide substrates, to characterize the substrate specificity and to identify substrates useful for screening assays (for example to screen for modulators including inhibitors).
# The table below lists the tested compounds (mostly dipeptides indicated by their short names, e.g. ala-gly for an alanine-glycine dipeptide) and indicates whether they are cleaved by the peptidase. Z indicates a benzyloxy-carbonyl protecting group at the N-terminus of the peptide.
# Cleavage was determined by thin layer chromatography.
# Amounts are qualitative with (+++) indicating >80% cleavage of a 1 mM solution by 0.1 μg/ml peptidase during an incubation for 1 h; (++) indicates complete cleavage of a 1 mM solution by 1 μg/ml peptidase during an incubation for 1 h and (+) indicates partial cleavage (20-80%) of a 1 mM solution by 1 μg/ml peptidase during an incubation for 1 h and (−) indicating the absence of any cleavage.
# β-lyase = target: T2, β-lyase (Corynebacterium striatum, UniProt Q64HC5); assay: Cleavage of conjugates by β-lyase, release of 3-sulfanyl-3-methyl-hexanol by gas chromatography; assay type: biochemical, Corynebacterium sp. Ax20; conditions: conjugate 1 mM incubated with β-lyase
# T2 construct: made in house
# T2 sequence (Q64HC5 whole entry): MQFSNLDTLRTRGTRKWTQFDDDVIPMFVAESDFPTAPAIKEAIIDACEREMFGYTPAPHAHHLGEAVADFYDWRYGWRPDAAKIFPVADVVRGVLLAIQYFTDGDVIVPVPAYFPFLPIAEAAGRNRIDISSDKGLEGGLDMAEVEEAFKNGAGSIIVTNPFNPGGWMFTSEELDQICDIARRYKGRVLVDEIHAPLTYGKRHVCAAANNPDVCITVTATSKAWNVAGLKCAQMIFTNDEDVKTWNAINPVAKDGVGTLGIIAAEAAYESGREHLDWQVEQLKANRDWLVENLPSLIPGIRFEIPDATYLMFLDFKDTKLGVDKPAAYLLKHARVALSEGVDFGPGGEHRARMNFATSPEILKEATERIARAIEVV
# Description: The test compounds (Cys-conjugate (1 mM) or Cys-Gly-conjugate (1 mM)) were incubated with β-lyase.
# (§1) Cleavage was measured by gas chromatography to determine the release of 3-sulfanyl-3-methyl-hexanol in mM.
# C. sp. Ax 20 extract = assay: Cleavage of conjugates by Corynebacterium sp. Ax20 cellular extract, release of 3-sulfanyl-3-methyl-hexanol by gas chromatography; assay type: biochemical; conditions: conjugate 1 mM incubated with C. sp. Ax 20 extract for 24 h
# Description: The test compounds (cys-conjugate (1 mM) or cys-gly-conjugate (1 mM)) were incubated also with the wild-type strain Corynebacterium sp. Ax20 extract naturally containing the peptidase of SEQ ID NO:2. Corynebacterium sp. Ax20 cellular extract was prepared as described in example 1. The resulting extract was diluted to the same volume as the original culture has had when adjusted to an optical density of OD 4. The substrate was incubated with the extract for 24 h.
# as §1
# C. sp. Ax20 extract = assay: Inhibition of malodourant release by C. sp. Ax20 extract; assay type: biochemical, Corynebacterium sp. Ax20; conditions: o-phenantrolin 0.5 mM, Complete at manufacturer's use concentration, 10 min pre-incubation
# Description: (§2) Extracts from C. sp. Ax20 and C. jeikeium K411 were formed as described in example 1.
# (§3) O-phenantrolin (0.5 mM), a metallopeptidase inhibitor, or Complete™ (EDTA free), a protease inhibitor mix (Roche biochemicals, Switzerland; use concentration as indicated by the manufacturer) that contains broad specificity serine and […] inhibitors but no metallopeptidase inhibitors were added to batches of the extracts and incubated for 10 min.
# (§4) The cys-conjugate or the cys-gly-conjugate (1 mM), both precursors for the malodourant 3-sulfanyl-3-methyl-hexanol, were then added to the C. sp. Ax20 or C. jeikeium K411 extracts containing the different inhibitors.
# (§5) The release of the malodourant 3-sulfanyl-3-methyl-hexanol, which indicates enzyme activity in the Corynebacteria cell lysates, was measured as described in examples 12 and 13.
# (§6) The results (in % inhibition of 3-sulfanyl-3-methyl-hexanol release compared to reactions without added inhibitors) are indicated in the table below.
# C. jeikeium K411 extract = assay: Inhibition of malodourant release by C. jeikeium K411 extract; assay type: biochemical, Corynebacterium jeikeium K411; conditions: o-phenantrolin 0.5 mM, Complete at manufacturer's use concentration, 10 min pre-incubation
# Description: as §2, §3, §4, §5, §6
SMILES,Inhibition of release of free NH2 groups from Pro-Gly ([1]; test compound 15.625 microM),Inhibition of release of free NH2 groups from Pro-Gly ([1]; test compound 31.25 microM),Inhibition of release of free NH2 groups from Pro-Gly ([1]; test compound 62.5 microM),Inhibition of release of free SH groups from S-benzyl-cys-gly in presence of peptidase and β-lyase ([2]; test compound 15.625 microM),Inhibition of release of free SH groups from S-benzyl-cys-gly in presence of peptidase and β-lyase ([2]; test compound 31.25 microM),Inhibition of release of free SH groups from S-benzyl-cys-gly in presence of peptidase and β-lyase ([2]; test compound 62.5 microM),Inhibition of release of free NH2 groups from N-Lauroyl-glutamine (catalyzed by AMRE) ([3]; test compound 15.625 microM),Inhibition of release of free NH2 groups from N-Lauroyl-glutamine (catalyzed by AMRE) ([3]; test compound 31.25 microM),Inhibition of release of free NH2 groups from N-Lauroyl-glutamine (catalyzed by AMRE) ([3]; test compound 62.5 microM),Cleavage (Ax20 peptidase),further results
"O=C(O)CSCCSCC(=O)O [2,2′-Ethylendithio-diacetic acid]",0.1 % inhibition,−2.6 % inhibition,−5.3 % inhibition,−10.1 % inhibition,−9.1 % inhibition,−8.7 % inhibition,22.4 % inhibition,12.7 % inhibition,19.6 % inhibition,,
CC(N)C(=O)NC(C)C(=O)O (centres unmarked) [Ala-Ala],,,,,,,,,,++,
CC(N)C(=O)NCC(=O)O (centres unmarked) [Ala-Gly],,,,,,,,,,++,
O=C(O)CN(CCN(CC(=O)O)CC(=O)O)CC(=O)O [Ethylenediaminetetraacetic acid],101.0 % inhibition,102.6 % inhibition,101.4 % inhibition,99.3 % inhibition,96.5 % inhibition,99.0 % inhibition,62.4 % inhibition,59.8 % inhibition,61.6 % inhibition,,
NCC(=O)NCC(=O)O [Gly-Gly] (H-Gly-Gly-OH),,,,,,,,,,+ ((+) indicates partial cleavage (20-80%) of a 1 mM solution by 1 μg/ml peptidase during an incubation for 1 h),
"NC(CSCc1ccccc1)C(=O)NCC(=O)O (centres unmarked) [H-Cys(Bzl)-Gly-OH, S-benzyl-Cys-Gly]",,,,,,,,,,+++ ((+++) indicating >80% cleavage of a 1 mM solution by 0.1 μg/ml peptidase during an incubation for 1 h),
O=C(O)CNC(=O)C1CCCN1 (centres unmarked) [Pro-Gly],,,,,,,,,,+ ((+) indicates partial cleavage (20-80%) of a 1 mM solution by 1 μg/ml peptidase during an incubation for 1 h),
C[C@H](NC(=O)OCc1ccccc1)C(=O)O [Z-Ala],,,,,,,,,,−,
O=C(O)CNC(=O)CNC(=O)OCc1ccccc1 [Z-Gly-Gly] (Cbz-Gly-Gly-OH),,,,,,,,,,−,
O=C(O)CNC(=O)OCc1ccccc1 [Z-Gly],,,,,,,,,,−,
CCCC(C)(CCO)SC[C@H](N)C(=O)O (some centres unmarked) [cys-conjugate],,,,,,,,,,,release of 3-sulfanyl-3-methyl-hexanol from the conjugate (β-lyase): 0.59 mM; release of 3-sulfanyl-3-methyl-hexanol from the conjugate (C. sp. Ax 20 extract): 0.31 mM
"O=C(O)CNCCNCC(=O)O [ethylendiamine-N,N′-diacetic acid]",65.7 % inhibition,81.0 % inhibition,93.9 % inhibition,50.2 % inhibition,73.1 % inhibition,90.4 % inhibition,7.4 % inhibition,7.2 % inhibition,42.7 % inhibition,,
c1cnc2c(c1)ccc1cccnc12 [o-Phenantrolin],83.9 % inhibition,95.5 % inhibition,100.0 % inhibition,54.2 % inhibition,79.9 % inhibition,93.1 % inhibition,42.4 % inhibition,81.8 % inhibition,96.1 % inhibition,,% inhibition of 3-sulfanyl-3-methyl-hexanol release compared to reactions without added inhibitors (C. sp. Ax20 extract; substrate Cys-Gly-conj. 1 mM): 100 % inhibition; % inhibition of 3-sulfanyl-3-methyl-hexanol release compared to reactions without added inhibitors (C. sp. Ax20 extract; substrate Cys-conj. 1 mM): 0 % inhibition; % inhibition of 3-sulfanyl-3-methyl-hexanol release compared to reactions without added inhibitors (C. jeikeium K411 extract; substrate Cys-Gly-conj. 1 mM): 93 % inhibition; % inhibition of 3-sulfanyl-3-methyl-hexanol release compared to reactions without added inhibitors (C. jeikeium K411 extract; substrate Cys-conj. 1 mM): 13 % inhibition
"O=C(O)c1cccc(C(=O)O)n1 [pyridine-2,6-dicarboxylic acid]",72.4 % inhibition,92.4 % inhibition,100.9 % inhibition,49.6 % inhibition,83.4 % inhibition,95.9 % inhibition,28.8 % inhibition,52.0 % inhibition,72.2 % inhibition,,

# Reference: US10125356B2, “Enzymatic methods and enzymes” (Givaudan SA, priority 2007, dated 2018)
